The test system of this experiment is calpain. In words: immunoblot of calcium-induced calpain-mediated spectrin breakdown product. The class given is biochemical, Rattus norvegicus.

Each structure is given as a SMILES string.

For orientation: IC50 means the concentration that inhibits the measured activity by half. As for `CCOC(=O)[C@H]1O[C@@H]1C(=O)N[C@@H](CC(C)C)C(=O)NCCC(C)C` [E64d, 2S,3S-trans-epoxysuccinyl-L-leucylamido-3-methylbutane ethyl ester], the IC50 is 3 to 6 µM.

For the origin of these results see paper PMC5967645 (European scientific journal, 2017).
